# Reference: patent US11401271B2, “Fused heterocyclic compound, pyrazole-ring-containing fused heterocyclic compound, agricultural composition containing thereof, and method of using the composition” (SOUTH CHINA AGRICULTURAL UNIVERSITY, priority 2017, dated 2022)
# Columns and labels:
# Assay in all cases: whole plant or invertebrate
# Assay type in all cases: in vivo
# Plutella xylostella = conditions: 500 ppm; 2nd-instar larvae, leaf immersion feeding
# Method in brief: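 Leaf immersion feeding test: 2nd-instar larvae (about 35 per vessel, 3 replicates) kept at 28° C. on 1.0 cm cabbage discs soaked 5 s in a 500 ppm solution with 0.05% Tween-80. Mortality after 24 h of exposure, calculated relative to live larvae in the Tween-80 control.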
# Spodoptera exigua = conditions: 500 ppm, 2nd-instar larvae, leaf immersion feeding; for Spodoptera exigua Mortality (%) 500 ppm: 24 hours
# Method in brief: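 Leaf immersion feeding: second-instar larvae (about 35 per vessel, triplicate) kept at 28° C on discs treated with 500 ppm test solution in 0.05% Tween-80. Mortality at 24 h, calculated relative to surviving larvae in the solvent control.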
# Solenopsis invicta = conditions: 100 ppm, water test tube poison-feeding
# Method in brief: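 Mortality (%) of Solenopsis invicta, computed against live counts in control tubes, was recorded 24 h and 72 h after treatment at 25 °C. Compound was offered by oral feeding in test tubes at 100 ppm, diluted from a 10 g/L DMSO stock into water with 5% honey and 0.05% Tween-80.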
# Aphis craccivora = conditions: 500 ppm, wingless adults; for Aphis craccivora Mortality (%) 500 ppm: impregnation method, 24 hours; for Aphis craccivora Mortality (%): immersion 5 seconds, counted after 24 hours
# Method in brief: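 Mortality scored 24 h after treatment as the reduction in live aphids versus a 0.05% Tween-80 control; three replicates, 23° C. Treatment was a 5 s immersion of wingless adults on bean sprouts in 500 ppm test solution containing 0.05% Tween-80, followed by air-drying.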
SMILES,Plutella xylostella Mortality (%) 500 ppm (Plutella xylostella) [%],Spodoptera exigua Mortality (%) 500 ppm (Spodoptera exigua) [%],Solenopsis invicta Mortality (%) 100 ppm 24 h (Solenopsis invicta) [%],Solenopsis invicta Mortality (%) 100 ppm 72 h (Solenopsis invicta) [%],Aphis craccivora Mortality (%) 500 ppm (Aphis craccivora) [%],Plutella xylostella Mortality (%) (Plutella xylostella),Spodoptera exigua Mortality (%) (Spodoptera exigua),Solenopsis invicta Mortality (%) 24 h (Solenopsis invicta) [%],Solenopsis invicta Mortality (%) 72 h (Solenopsis invicta) [%],Aphis craccivora Mortality (%) (Aphis craccivora)
N#Cc1nn2c(c1[S+]([O-])C(F)(F)F)NC(Cl)(CBr)c1cc(C(F)(F)F)cnc1-2 (stereo not shown) [a-45],100,91,20,90,100,,,,,
CC1(C)Nc2c([S+]([O-])C(F)(F)F)c(C#N)nn2-c2ncc(C(F)(F)F)cc21 (stereo not shown) [a-51],91,89,16,95,100,,,,,
N#Cc1nn2c(c1[S+]([O-])C(F)(F)F)NC(C#N)(C#N)c1cc(C(F)(F)F)cnc1-2 (stereo not shown) [a-52],100,89,20,89,91,,,,,
COC(=O)CC1(C#N)Nc2c([S+]([O-])C(F)(F)F)c(C#N)nn2-c2ncc(C(F)(F)F)cc21 (stereo not shown) [a-56],100,90,16,93,100,,,,,
N#Cc1nn2c(c1[S+]([O-])C(F)(F)F)NC(C#N)(CC(=O)C(F)(F)F)c1cc(C(F)(F)F)cnc1-2 (stereo not shown) [a-57],100,100,24,100,100,,,,,
N#CCC1(C(F)(F)F)Nc2c([S+]([O-])C(F)(F)F)c(C#N)nn2-c2ncc(C(F)(F)F)cc21 (stereo not shown) [a-59],96,91,28,97,100,,,,,
COC(=O)CC1(C(F)(F)F)Nc2c([S+]([O-])C(F)(F)F)c(C#N)nn2-c2ncc(C(F)(F)F)cc21 (stereo not shown) [a-62],100,100,21,99,100,,,,,
N#Cc1nn2c(c1[S+]([O-])C(F)(F)F)NC(CC(=O)C(F)(F)F)(C(F)(F)F)c1cc(C(F)(F)F)cnc1-2 (stereo not shown) [a-63],100,100,24,100,100,,,,,
COC(=O)C1Nc2c([S+]([O-])C(F)(F)F)c(C#N)nn2-c2ncc(C(F)(F)F)cc21 (stereo not shown) [a-64],100,99,20,99,100,,,,,
COC(=O)CC1Nc2c([S+]([O-])C(F)(F)F)c(C#N)nn2-c2ncc(C(F)(F)F)cc21 (stereo not shown) [a-65],100,100,26,100,100,,,,,
N#Cc1nn2c(c1[S+]([O-])C(F)(F)F)NC(C(=O)C(F)(F)F)c1cc(C(F)(F)F)cnc1-2 (stereo not shown) [a-71],100,99,24,100,100,,,,,
N#Cc1nn2c(c1[S+]([O-])C(F)(F)F)NC(C#N)c1cc(C(F)(F)F)cnc1-2 (stereo not shown) [a-72],96,89,20,91,100,,,,,
N#Cc1nn2c(c1[S+]([O-])C(F)(F)F)NC(Cl)c1cc(C(F)(F)F)cnc1-2 (stereo not shown) [a-80],91,85,10,100,100,,,,,
COC(=O)C1Nc2c([S+]([O-])C(F)(F)F)c(C(F)(F)F)nn2-c2ncc(C(F)(F)F)cc21 (stereo not shown) [a-87],96,100,20,97,100,,,,,
COC(=O)CC1Nc2c([S+]([O-])C(F)(F)F)c(C(F)(F)F)nn2-c2ncc(C(F)(F)F)cc21 (stereo not shown) [a-88],100,100,34,100,100,,,,,
N#CC1Nc2c([S+]([O-])C(F)(F)F)c(C(F)(F)F)nn2-c2ncc(C(F)(F)F)cc21 (stereo not shown) [a-95],96,89,21,92,100,,,,,
CC=CC1Nc2c([S+]([O-])C(F)(F)F)c(C(F)(F)F)nn2-c2ncc(C(F)(F)F)cc21 (stereo not shown) [a-109],95,89,20,90,100,,,,,
COC(=O)CC1(C(=O)OC)Nc2c(Cl)c(C#N)nn2-c2ncc(C(F)(F)F)cc21 (stereo not shown) [a-133],100,100,24,100,100,,,,,
COC(=O)CC1(C(=O)OC)Nc2c([S+]([O-])C(F)(F)F)c(C#N)nn2-c2cncc(Cl)c21 (stereo not shown) [b-1],,,,,,100,100,20,97,100
COC(=O)C1(CC#N)Nc2c([S+]([O-])C(F)(F)F)c(C#N)nn2-c2cncc(Cl)c21 (stereo not shown) [b-2],,,,,,100,95,19,93,100
CCOC(=O)C1(CC(=O)OC)Nc2c([S+]([O-])C(F)(F)F)c(C#N)nn2-c2cncc(Cl)c21 (stereo not shown) [b-23],,,,,,96,95,10,97,100
N#Cc1nn2c(c1[S+]([O-])C(F)(F)F)NC(CC(=O)C(F)(F)F)(C(=O)C(F)(F)F)c1c(Cl)cncc1-2 (stereo not shown) [b-25],,,,,,100,100,26,100,100
N#Cc1nn2c(c1[S+]([O-])C(F)(F)F)NC(Cc1ccccc1)(C(=O)C(F)(F)F)c1c(Cl)cncc1-2 (stereo not shown) [b-27],,,,,,91,89,19,100,100
COC(=O)CC1(C(=O)C(F)(F)F)Nc2c([S+]([O-])C(F)(F)F)c(C#N)nn2-c2cncc(Cl)c21 (stereo not shown) [b-28],,,,,,100,99,16,100,100
N#CCC1(C(=O)C(F)(F)F)Nc2c([S+]([O-])C(F)(F)F)c(C#N)nn2-c2cncc(Cl)c21 (stereo not shown) [b-30],,,,,,90,85,25,94,100
CC(=O)C1(CBr)Nc2c([S+]([O-])C(F)(F)F)c(C#N)nn2-c2cncc(Cl)c21 (stereo not shown) [b-34],,,,,,90,87,10,100,100
CC(=O)C1(CC(=O)C(F)(F)F)Nc2c([S+]([O-])C(F)(F)F)c(C#N)nn2-c2cncc(Cl)c21 (stereo not shown) [b-37],,,,,,86,90,20,94,99
CNC1(CC#N)Nc2c([S+]([O-])C(F)(F)F)c(C#N)nn2-c2cncc(Cl)c21 (stereo not shown) [b-43],,,,,,89,80,19,90,89
N#CCC1(Cl)Nc2c([S+]([O-])C(F)(F)F)c(C#N)nn2-c2cncc(Cl)c21 (stereo not shown) [b-47],,,,,,95,85,18,90,100
